{
  "source": "patent US6521644B1",
  "about": "“Compositions for promoting growth” (Ferring BV, priority 1999, dated 2003)",
  "system": "GH surge induced by GHRH",
  "experiment": "Effect on circulating growth hormone: GH surge induced by i.v. GHRH in rats, plasma GH by RIA",
  "type": "in vivo, male Sprague-Dawley rats",
  "experimental": "Experiments were conducted in male Sprague-Dawley rats (200-220 g) obtained from lffa Credo (L'Arbresle, France), fed with standard laboratory chow ad libitum and kept on a 12 h light-dark in a temperature- and humidity-controlled room.\nRats were weighed and anesthetized with Narcorene. The ventral side of the throat was shaved and an incision was made down the center of the throat. The right jugular vein was exposed and cannulated using a polythene tubing (OD 1.0 mm) connected to a medical grade silicone tubing (OD 0.94 mm) (silicone side in the jugular vein). The tubing was secured and the polythene side was externalized through an incision made on the dorsal side of the neck. The catheter was rinsed with 300 μL of a Ringer solution containing 0.1% heparin. Rats were allowed to recover for at least 24 hours in individual cages with food and water available ad libitum.\nThe compound of Example 1B (3 mg/kg, i.v.) or its vehicle was injected 15 minutes before an injection of GHRH (0.1 μg/kg, i.v.). Blood samples (200-250 μL) were removed immediately before inhibitor and GHRH injections, and then 5, 10, 15, 20, 30 and 60 min post-GHRH. Each blood sample was replaced with an equivalent volume of a Ringer solution containing 0.1% heparin. Plasma was extracted and stored at −20° C. until determinations of GH by RIA.",
  "data": [
    {"molecule": "CC(C)(C)[C@H](N)C(=O)N1CCC[C@H]1C#N", "note": "[Example 1B, (2S)-N-((2′S)-2′-amino-3′,3′-dimethylbutanoyl)pyrrolidine-2-carbonitrile]", "values": [
      {"measurement": "Effect on the GH surge induced by the administration of GHRH", "setting": "3 mg/kg i.v. 15 min before GHRH 0.1 μg/kg i.v., rats", "value": "potentiated the GH surge"},
      {"measurement": "mean GH, Time 5 min", "setting": "5 min post-GHRH 0.1 μg/kg i.v., inhibitor 3 mg/kg i.v. 15 min before GHRH, mean of 6 rats ± s.e.m.", "value": "483.0 ± 91.0", "unit": "ng/mL"},
      {"measurement": "mean GH, Time 10 min", "setting": "10 min post-GHRH 0.1 μg/kg i.v., inhibitor 3 mg/kg i.v. 15 min before GHRH, mean of 6 rats ± s.e.m.", "value": "309.5 ± 55.40", "unit": "ng/mL"},
      {"measurement": "mean GH, Time 0 min", "setting": "15 min after inhibitor 3 mg/kg i.v., immediately before GHRH 0.1 μg/kg i.v., mean of 6 rats ± s.e.m.", "value": "33.4 ± 6.9", "unit": "ng/mL"},
      {"measurement": "mean GH, Time 15 min", "setting": "15 min post-GHRH 0.1 μg/kg i.v., inhibitor 3 mg/kg i.v. 15 min before GHRH, mean of 6 rats ± s.e.m.", "value": "164.3 ± 28.3", "unit": "ng/mL"},
      {"measurement": "mean GH, Time 20 min", "setting": "20 min post-GHRH 0.1 μg/kg i.v., inhibitor 3 mg/kg i.v. 15 min before GHRH, mean of 6 rats ± s.e.m.", "value": "103.1 ± 18.1", "unit": "ng/mL"},
      {"measurement": "mean GH, Time 30 min", "setting": "30 min post-GHRH 0.1 μg/kg i.v., inhibitor 3 mg/kg i.v. 15 min before GHRH, mean of 6 rats ± s.e.m.", "value": "52.1 ± 7.7", "unit": "ng/mL"},
      {"measurement": "mean GH, Time 60 min", "setting": "60 min post-GHRH 0.1 μg/kg i.v., inhibitor 3 mg/kg i.v. 15 min before GHRH, mean of 6 rats ± s.e.m.", "value": "26.3 ± 3.3", "unit": "ng/mL"},
      {"measurement": "GH AUC", "setting": "AUC column of Table 1, inhibitor 3 mg/kg i.v. 15 min before GHRH 0.1 μg/kg i.v., 6 rats, ± s.e.m.", "value": "5070 ± 837", "unit": "ng·min/mL"},
      {"measurement": "Integrated GH response", "setting": "inhibitor-treated group, 3 mg/kg i.v. 15 min before GHRH 0.1 μg/kg i.v., p<0.05 vs vehicle (720.2±217.0)", "value": "5072.8±837.3", "unit": "ng/ml.60 min"},
      {"measurement": "mean GH, Time -15 min", "setting": "plasma GH immediately before inhibitor injection (3 mg/kg i.v.), mean of 6 rats ± s.e.m.", "value": "50.5 ± 16.4", "unit": "ng/mL"}
    ]}
  ]
}
